{"source": "patent US20060205938A1", "about": "“Monohydrate solvates of loracarbef” (priority 2002, published 2006)", "key": {"[1]": {"assay": "Bulk density of crystalline loracarbef monohydrate", "assay_type": "physicochemical"}, "[2]": {"settings": "fine, fluffy powder obtained by the process disclosed in EP 0,369,686; cited from earlier work"}}, "data": [{"compound": "N[C@@H](C(=O)N[C@@H]1C(=O)N2C(C(=O)O)=C(Cl)CC[C@H]12)c1ccccc1.O", "note": "[crystalline loracarbef monohydrate, (6R,7S)-7-[(R)-2-amino-2-phenylacetamido]-3-chloro-8-oxo-1-azabicyclo [4.2.0]oct-2-ene-carboxylic acid, monohydrate]", "values": [{"measurement": "bulk density", "setting": "[1]; crystalline monohydrate prepared from mono N,N-dimethylacetamide monohydrate solvate (Example 2)", "result": "greater than 0.6 g/ml"}, {"measurement": "bulk density", "setting": "[1]; crystalline monohydrate prepared from mono N-methyl pyrrolidone monohydrate solvate (Example 4)", "result": "greater than 0.6 g/ml"}, {"measurement": "bulk density", "setting": "[1]; monohydrate prepared from mono N,N-dimethylacetamide monohydrate solvate or mono N-methylpyrrolidone monohydrate solvate", "result": "≥ 0.6", "unit": "g/mL"}, {"measurement": "density", "setting": "[2]", "result": "approximately 0.2 g/ml"}]}]}
